From ChEMBL document CHEMBL4387767, “Synthesis of carbazoloquinone derivatives and their antileukemic activity via modulating cellular reactive oxygen species” (Bioorg Med Chem Lett, 2019)
The source made the active and inactive calls. The calls are words filed in the database; no cut-off is given here.

How the values were obtained:
[1] = tested on: HL-60; test: Cytotoxicity against human HL60 cells assessed as reduction in cell viability measured after 48 hrs by CCK8 assay; assay type: functional, cell-based; conditions: HL-60, 48 h
[2] = tested on: HL-60; test: Cytotoxicity against human HL60 cells assessed as cell viability at 10 uM measured after 48 hrs by CCK8 assay relative to control; assay type: functional; conditions: HL-60, 48 h, read-out: Activity
[3] = tested on: HL-60; test: Induction of apoptosis in human HL60 cells assessed as chromatin crenation at 1 uM measured after 24 hrs by Hoechst 33342 staining based fluorescence microscopic method; assay type: functional, cell-based
[4] = tested on: HL-60; test: Induction of reactive oxygen species generation in human HL60 cells assessed as increase in intracellular ROS level at 1 uM measured after 2 hrs by NBT dye-based assay relative to control; assay type: functional
[5] = tested on: HL-60; test: Induction of apoptosis in human HL60 cells assessed as chromatin fragmentation at 1 uM measured after 24 hrs by Hoechst 33342 staining based fluorescence microscopic method; assay type: functional, cell-based
[6] = tested on: HL-60; test: Induction of reactive oxygen species generation in human HL60 cells assessed as increase in extracellular ROS level at 1 uM measured after 2 hrs by NBT dye-based assay; assay type: functional, cell-based
[7] = tested on: HL-60; test: Induction of apoptosis in human HL60 cells assessed as chromatin condensation at 1 uM measured after 24 hrs by Hoechst 33342 staining based fluorescence microscopic method; assay type: functional, cell-based

O=C1c2ccccc2C(=O)c2c1sc1ccccc21
IC50 ([1]; read-out: IC50): > 50000 nM

COc1cc2[nH]c3c(c2cc1OC)C(=O)C(C)=CC3=O
IC50 ([1]; read-out: IC50): 550 nM
viability at 10 µM [2]: < 20%

O=C1c2ccccc2C(=O)c2c1oc1ccccc21
Activity [3]: Active
fold change (FC) [4]: 2.3 - 2.4
IC50 ([1]; read-out: IC50): 410 nM
Activity [5]: Active
Activity [6]: Active
Activity [7]: Active

O=C1c2ccccc2C(=O)c2c1[se]c1ccccc21
IC50 ([1]; read-out: IC50): > 50000 nM

COc1ccc2[nH]c3c(c2c1)C(=O)C(C)=CC3=O
IC50 ([1]; read-out: IC50): 3110 nM
viability at 10 µM [2]: < 20%

CC1=CC(=O)c2[nH]c3ccc(C(F)(F)F)cc3c2C1=O
IC50 ([1]; read-out: IC50): 590 nM
viability at 10 µM [2]: < 20%

CC1=CC(=O)c2[nH]c3ccc(Cl)cc3c2C1=O
IC50 ([1]; read-out: IC50): 240 nM
viability at 10 µM [2]: < 20%

CC1=CC(=O)c2[nH]c3ccccc3c2C1=O [MURRAYAQUINONE A]
Activity [3]: Active
fold change (FC) [4]: 2.3 - 2.4
IC50 ([1]; read-out: IC50): 730 nM
Activity [5]: Active
viability at 10 µM [2]: < 20%
Activity [6]: Active
Activity [7]: Active

COc1ccc2[nH]c3c(c2c1)C(=O)C=C(C)C3=O
IC50 ([1]; read-out: IC50): 5060 nM
viability at 10 µM [2]: < 20%

O=C1c2ccccc2C(=O)c2c1[nH]c1ccccc21 [BENZOCARBAZOLEDIONE]
Activity [4]: Active
IC50 ([1]; read-out: IC50): > 50000 nM

O=c1[nH]cc(F)c(=O)[nH]1 [FLUOROURACIL]
IC50 [1]: 42800 nM

CC1=CC(=O)c2c([nH]c3ccccc23)C1=O
IC50 ([1]; read-out: IC50): 290 nM
viability at 10 µM [2]: < 20%

COc1ccc2c3c([nH]c2c1)C(=O)C=C(C)C3=O
IC50 ([1]; read-out: IC50): 1210 nM
viability at 10 µM [2]: < 20%
